Results as given in patent US8981106B2, “Pyrimidinecarboxamides as CXCR2 modulators” (Syntrix Biosystems, Inc., priority 2009, dated 2015).
“Also recorded” adds a separate entry of the source. Where two headings read alike, the source gives them in different places.

Experiments:
CXCR2 [1] = target: T1, CXCR2 (Homo sapiens (Human), UniProt P25025); experiment: 125I-IL-8 radioligand binding inhibition; conditions: concentrations up to 10 μM
Description: In vitro experiments, in addition to those measuring calcium release from human PMNs, provided evidence that the mechanism of action of Compounds 1 and 2 are most consistent with an allosteric (non-competitive) mode of action.
Target sequence in this assay (P25025 whole entry): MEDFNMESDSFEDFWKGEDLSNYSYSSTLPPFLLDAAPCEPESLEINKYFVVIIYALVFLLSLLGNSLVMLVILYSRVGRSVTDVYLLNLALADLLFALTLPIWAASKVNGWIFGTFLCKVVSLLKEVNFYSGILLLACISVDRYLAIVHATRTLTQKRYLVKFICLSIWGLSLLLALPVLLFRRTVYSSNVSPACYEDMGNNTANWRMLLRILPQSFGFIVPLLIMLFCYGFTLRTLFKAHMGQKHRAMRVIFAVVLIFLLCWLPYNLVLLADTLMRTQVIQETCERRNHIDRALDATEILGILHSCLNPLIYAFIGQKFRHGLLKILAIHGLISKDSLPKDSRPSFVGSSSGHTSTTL

CXCR2 [2] = target: T1, CXCR2; experiment: Inhibition of GROα-mediated intracellular calcium release in human neutrophils (FLIPR-3 Ca2+ mobilization); format: cell-based
Target sequence in this assay (P25025 whole entry): as above

Aqueous solubility = format: physicochemical
neutrophil influx [3] = experiment: Murine air pouch model of neutrophil chemotaxis (p.o.); format: in vivo, male CD-1 mice; conditions: for total neutrophil counts in the blood: high doses, compared to control animals; for neutrophil influx / neutrophil influx at high oral dose: p.o.
Description: Compounds 1 (SX-517) and 2 (SX-576) were also assayed in an in vivo air-pouch model of inflammation. SX-517 and SX-576 were able to attenuate neutrophil influx in the air-pouch model by about 50% at an oral dose of 0.2 and 0.05 mg/kg, respectively. […] More specifically, the procedure was performed by forming an air pouch on the backs of male CD-1 mice via the subcutaneous injection of air (2 mL). The next day, an additional subcutaneous injection of air (1.5 mL) was performed to reinflate the air pouch. The mice were given either vehicle control (Labrasol®) or test compound solubilized in Labrasol® via oral gavage. After 3 hours, either sterile phosphate buffered saline (PBS, 1 ml) or 2% carrageenan in sterile PBS (1 mL) was injected into the air pouch. After 4 hours, the mice were sedated with ketamine, and sacrificed by cervical dislocation. The exudate in the air pouch was collected by syringe, with an additional 2 mL wash with sterile PBS. The neutrophils were stained with trypan blue and counted on a hemocytometer under 20× magnification.

[4] = Crossover pharmacokinetic experiment in Beagle dogs; format: in vivo
Description: In this study, male Beagle dogs (n=5) were dosed intravenously on study day 1 with SX-576 in dimethylformamide/PEG400/saline (40:40:20) at a dose level of 5 mg/kg and a dose volume of 0.5 mL/kg. Blood samples were taken predose, and at time points 30, 60, 90, 120, 180, 360, 540 and 720 minutes. The blood was collected in tubes containing K2EDTA as an anticoagulant, and the tubes were centrifuged and the plasma fractions collected and frozen. After a one-week washout period, the same Beagle dogs were dosed orally with SX-576 in lipid based excipient Gelucire® 44/14 (Gattefosse) at a dose level of 5 mg/kg. Blood samples were then taken and plasma fractions collected as previously described. Prior to analysis, the plasma samples were thawed and diluted 1:3 into acetonitrile containing 1 μM of compound 153 as an internal standard. The resulting samples were centrifuged and the supernatant analyzed by LC-MS monitoring in multiple reaction monitoring mode. The samples were run concomitantly with a calibration curve of SX-576 in the same internal standard solution.
The lipid based excipient Gelucire® 44/14 is a self-emulsifying drug delivery system (SEDDS) that is able to solubilize both SX-517 and SX-576 into aqueous solutions via micellular formation. […] Therefore, lipid-based emulsifiers are important excipients for the oral delivery of SX-576.

CXCR2 [5] = target: T1, CXCR2; experiment: Agonist activity: intracellular calcium release in human neutrophils in the absence of GROα; format: cell-based; conditions: relative to the response to 25 nM GROα
Description: In Tables 1-5, the IC50 or EC50 values were determined using the following assay. This assay measures intracellular calcium release via fluorescence as an indication of CXCR2 receptor activation by the physiologic agonist GROα. The assay is a Ca^2+ mobilization assay that measures changes in intracellular Ca^2+ with a FlexStation II scanning fluorometer using a FLIPR-3 Calcium Assay Kit (Molecular Devices, Sunnyvale, Calif.). The procedure is as follows:
9. The maximum change in fluorescence, expressed in arbitrary units over baseline (Max-Min) was used to determine the GROα response. […] Therapeutic Activity
The maximum change in fluorescence, expressed in arbitrary units over baseline (Max-Min), was used to determine the GROα response.
Intracellular calcium release is a hallmark of CXCR2 activation by endogenous agonists, such as GROα and IL-8.
Target sequence in this assay (P25025 whole entry): as above

CXCR2 [6] = target: T1, CXCR2; experiment: β-arrestin recruitment, β-galactosidase fragment complementation (DiscoveRx)
Target sequence in this assay (P25025 whole entry, species assumed): as the sequence (P25025 whole entry) above

CXCR2 [7] = target: T1, CXCR2; experiment: Wash-resistant inhibition of GROα-mediated calcium response after inhibitor washout; format: cell-based; conditions: 0.4, 2, 10 μM, 30 min incubation, washed, up to 6 h after washout
Target sequence in this assay (P25025 whole entry): as above
Description: The cells were washed and resuspended in RPMI/2% serum (serum was obtained from the same donor as the neutrophils). The concentration of the neutrophil suspension was 10^7 cells/mL. […] The neutrophils were washed and resuspended in RPMI/2% serum and maintained at room temperature. At 30 minutes before each time point, a 56.25 μL aliquot of the neutrophils were removed and loaded for 30 minutes at room temperature in the dark with FLIPR-3 reagent (262.5 μL per tube).

pulmonary inflammation = experiment: Ozone rat model of pulmonary inflammation; format: in vivo, Sprague-Dawley rats; conditions: 1 mg/kg i.v., 1 ppm ozone, BALF at 24 hours
Description: Activity in this model of pulmonary inflammation would provide direct relevance towards the treatment of a number of pulmonary inflammatory diseases, including chronic obstructive pulmonary disease (COPD) and bronchopulmonary dysplasia (BPD). In this experiment, Sprague-Dawley rats (n=4 per cohort) were dosed intravenously at t=0 with either vehicle (negative and positive groups, dimethylformamide/PEG400/saline, 40:40:20) or SX-576 (1 mg/kg). The rats were then placed in air (negative group) or 1 ppm ozone (positive and SX-576 groups) for 4 hours. The rats were dosed again at t=5 and 9 hours. The rats were then sacrificed at t=24 hours, and the bronchoalveolar lavage fluid (BALF) was collected. The cells were spun down, stained with Wright-Giemsa and counted. In the negative groups, no neutrophils were observed when stained. As a measure of lung leakage/damage, protein levels were quantified in BALF by Bradford protein assay analysis.

neutrophil influx [8] = experiment: Murine air pouch model of neutrophil chemotaxis (i.v.); format: in vivo, male CD-1 mice; conditions: i.v., 0.02, 0.05, 0.2 and 1.0 mg/kg
Description: The procedure was performed by forming an air pouch on the backs of male CD-1 mice via the subcutaneous injection of air (2 mL). The next day, an additional subcutaneous injection of air (1.5 mL) was performed to reinflate the air pouch. The mice were given either vehicle control (dimethylformamide/PEG400/saline) or test compound solubilized in vehicle via tail vein injection. After 30 minutes, either sterile phosphate buffered saline (PBS, 1 ml) or 2% carrageenan in sterile PBS (1 mL) was injected into the air pouch. After 4 hours, the mice were sedated with ketamine, and sacrificed by cervical dislocation. The exudate in the air pouch was collected by syringe, with an additional 2 mL wash with sterile PBS. The neutrophils were stained with trypan blue and counted on a hemocytometer under 20× magnification.

O=C(Nc1ccc(F)cc1)c1ccc(SCc2ccccc2B(O)O)nc1 [Compound 1, 6-(2-borono-2-yl-benzylsulfanyl)-N-(4-fluoro-phenyl)-nicotinamide]
displacement of radiolabeled IL-8 binding to CXCR2 receptors (CXCR2 [1]): unable to significantly displace | IC50 (CXCR2 [2]; human neutrophils, 25 nM GROα, read-out: IC50): 38 ± 3 nM | IC50 (CXCR2 [2]; in vitro, stated in the binding example, read-out: IC50 in vitro): ~60 nM | aqueous solubility (Aqueous solubility): poor aqueous solubility | total neutrophil counts in the blood (neutrophil influx [3]): not significantly changed | attenuation of neutrophil influx (neutrophil influx [3]; oral dose 0.2 mg/kg): about 50% | neutrophil influx (neutrophil influx [3]; 0.005 and 0.2 (mg/kg)): decrease of neutrophil influx | neutrophil influx at high oral dose (neutrophil influx [3]; doses in excess of 10 mg/kg): increase in neutrophil influx | plasma level when dosed without excipient [4]: undetected in plasma | Magnitude of Agonist Response (% of GROα only Control) (CXCR2 [5]): did not show agonist activity | activity on β-arrestin complexation with CXCR2 in the absence of IL8 (CXCR2 [6]): inverse agonists | inhibition of β-arrestin recruitment following CXCR2 activation with IL8 (CXCR2 [6]): inhibited arrestin recruitment

O=C(Nc1ccc(F)cc1)c1ccc(SCc2cc(OC(F)(F)F)ccc2B(O)O)nc1 [Compound 2, 6-(2-boronic acid-5-trifluoromethoxy-benzylsulfanyl)-N-(4-fluoro-phenyl)-nicotinamide]
wash-resistant inhibition of GROα mediated intracellular calcium release (CXCR2 [7]): dose-dependent and wash-resistant inhibition | influx of macrophages into the lungs (pulmonary inflammation): significantly decreased | influx of neutrophils into the lungs (pulmonary inflammation): significantly decreased | ozone-induced lung damage (protein levels in the BALF) (pulmonary inflammation): protected against ozone-induced lung damage | aqueous solubility (Aqueous solubility): poor aqueous solubility | total neutrophil counts in the blood (neutrophil influx [3]): not significantly changed | attenuation of neutrophil influx (neutrophil influx [3]; oral dose 0.05 mg/kg): about 50% | neutrophil influx (neutrophil influx [3]; 0.05 mg/kg): decrease of neutrophil influx | neutrophil influx at high oral dose (neutrophil influx [3]; doses in excess of 1 mg/kg): increase in neutrophil influx | bioavailability following oral administration ([4]; 5 mg/kg oral in Gelucire 44/14): improved the bioavailability | plasma level when dosed without excipient [4]: undetected in plasma | Magnitude of Agonist Response (% of GROα only Control) (CXCR2 [5]): 100% | activity on β-arrestin complexation with CXCR2 in the absence of IL8 (CXCR2 [6]): inverse agonists | inhibition of β-arrestin recruitment following CXCR2 activation with IL8 (CXCR2 [6]; listed as SX-576): inhibited arrestin recruitment; also recorded: more potent inhibitor than SX-517, comparable to the diarylurea SB225002 | neutrophil influx (neutrophil influx [8]): significantly attenuate neutrophil influx
